Data from ChEMBL document CHEMBL5724558, “Image-based profiling of drug vulnerabilities in CRC organoids” (2024).
Several values for one entry are separate records, joined by “and”; a condition that tells them apart may be missing. Identical values can stand only once.

Legend:
Assay type in all cases: functional, Homo sapiens
Set-up in all cases: dose or concentration left out as unconfirmed
Colon cancer organoid [1] = assay: (§1) Image-based profiling of donated chemical probes and chemogenomic kinase set in O06 CRC organoid. Image analysis is performed on the sum area metric, and the data were normalized to the DMSO control. After imaging the organoid viability is measured using the OneGloEX Luciferase Assay System. The normalized viability data and sum area are reported.
Colon cancer organoid [2] = assay: as §1, with “O09” for “O06”
Colon cancer organoid [3] = assay: as §1, with “O21” for “O06”

Row | SMILES | Cell Viability (Colon cancer organoid [1]; Replication number 1) | Cell Viability (Colon cancer organoid [1]; Replication number 2) | Cell Viability (Colon cancer organoid [2]; Replication number 1) | Cell Viability (Colon cancer organoid [2]; Replication number 2) | Cell Viability (Colon cancer organoid [3]; Replication number 1) | Cell Viability (Colon cancer organoid [3]; Replication number 2)
1 | Cc1nc(N2CC[C@H](O)C2)ncc1-c1cc(C(F)(F)F)cc2[nH]ncc12 | 99.241% and 111.944% | 84.0147% and 88.1256% | 63.142% and 75.4977% | 55.6466% and 44.9799% | 102.375% and 86.1578% | 90.0065% and 80.6122%
2 | CN1CCN(Cc2cc(NC(=O)c3ccc4c(c3)CN(c3ccccc3)CC4)cc(C(F)(F)F)c2)CC1 | 104.972% and 109.917% | 87.5694% and 92.1973% | 73.1959% and 82.4072% | 164.971% and 111.856% | 111.963% and 96.9088% | 113.098% and 109.943%
3 | C[C@@H](NC(=O)Nc1cc2[nH]ncc2c(CO)n1)c1ccccc1 [ERKi] | 27.1255% and 47.7752% | 41.1023% and 64.199% | 38.3769% and 59.9681% | 20.7917% and 30.6681% | 47.444% and 52.6843% | 54.1158% and 53.5714%
4 | CN(C)[C@H]1CN(C2CCc3cccc(F)c32)C[C@@H]1c1ccc(N2CCN(S(C)(=O)=O)CC2)cc1 (stereo partly drawn) | 159.825% and 136.993% | 128.982% and 128.571% | 201.275% and 108.733% | 175.885% and 109.186% | 78.9326% and 94.0562% | 85.3871% and 90.7518%
5 | CCC(=O)N[C@@H]1CC[C@H](C(=O)N(C)c2ccc(-c3nc4ccccc4o3)cc2)C1 [BI 99990] | 114.692% and 101.874% | 112.935% and 105.893% | 148.115% and 99.6283% | 106.898% and 85.8708% | 98.1271% and 82.0828% | 97.1544% and 80.6122%
6 | CN(C)CCOc1ccc(-c2nc(-c3ccncc3)c(-c3ccc4c(c3)CC/C4=N\O)[nH]2)cc1 [SB590885] | 179.76% and 135.095% | 115.548% and 114.756% | 91.6254% and 70.3132% | 62.6087% and 63.1686% | 87.754% and 100.348% | 97.8507% and 97.8769%
7 | O=C(NCC(=O)N1CCCC1)Nc1ccc2cnccc2c1 | 118.335% and 117.664% | 145.589% and 95.8311% | 77.5338% and 89.49% | 125.69% and 99.4932% | 118.981% and 107.577% | 82.9956% and 91.8258%
8 | C=CC(=O)Nc1ccc2[nH]c(=O)n(C3CCN(Cc4ccc(-c5nc6cc[nH]c(=O)c6cc5-c5ccccc5)cc4)CC3)c2c1 [Borussertib] | 53.8202% and 93.0364% | 55.5643% and 106.199% | 27.7912% and 48.9559% | 42.376% and 51.9429% | 72.0097% and 96.5806% | 66.1245% and 78.518%
9 | COc1cc2c(cc1-c1c(C)noc1C)ncc1[nH]c(=O)n([C@H](C)c3ccccn3)c12 | 37.8038% and 58.2282% | 43.3272% and 66.9145% | 51.0073% and 39.6445% | 53.9016% and 48.1786% | 88.6726% and 67.015% | 110.558% and 99.8807%
10 | CN1C(=O)c2sccc2N(C)c2nc(Nc3ccc(S(N)(=O)=O)cc3)ncc21 | 15.9976% and 28.488% | 18.284% and 43.3933% | 28.4515% and 23.8118% | 41.5113% and 34.0138% | 57.1917% and 77.4913% | 65.5582% and 80.0288%
11 | COc1cc2c(NC3CCN(C(C)C)CC3)nc(N3CCC(F)(F)CC3)nc2cc1OCCCN1CCCC1 | 71.9409% and 120.564% | 77.7589% and 98.4599% | 87.3897% and 128.439% | 117.725% and 126.861% | 89.3609% and 142.848% | 55.1916% and 97.1957%
12 | N#Cc1cnc(Nc2cc(NC[C@H]3CNCCO3)c(C(F)(F)F)cn2)cn1 [SRA-737] | 47.9437% and 94.589% | 63.1754% and 83.4961% | 93.3475% and 86.0215% | 90.1274% and 73.6966% | 21.4207% and 61.8815% | 26.4159% and 74.8471%
13 | C=CC(=O)Nc1ccc2[nH]c(=O)n(C3CCN(Cc4ccc(-c5ccc6c(c5)NC(=O)CO6)cc4)CC3)c2c1 [RL2578] | 82.8871% and 90.6073% | 145.126% and 114.128% | 79.7893% and 107.853% | 131.51% and 111.42% | 100.847% and 118.952% | 88.0648% and 119.816%
